Experimental data published in BindingDB's records for doi:10.1016/j.bmcl.2005.07.039 (Universit&#233, 2005).

Assays:
[1] = target: Sigma non-opioid intracellular receptor 1 (Cavia porcellus) (UniProt Q60492); test: Inhibitory activity against opioid receptor sigma 1 in guinea pig cerebral cortex using [3H](+)-pentazocine as radio ligand at pH 7.5 for 150 min at 22 degree C
[2] = target: Sigma non-opioid intracellular receptor 1 (Cavia porcellus) (UniProt Q60492); test: Inhibitory activity against Opioid receptor sigma 1 in guinea pig cerebral cortex using [3H](+)-pentazocine as radio ligand at pH 7.5 for 150 min at 22 C

Sigma non-opioid intracellular receptor 1 (Cavia porcellus), sequence (Q60492 whole entry, looked up): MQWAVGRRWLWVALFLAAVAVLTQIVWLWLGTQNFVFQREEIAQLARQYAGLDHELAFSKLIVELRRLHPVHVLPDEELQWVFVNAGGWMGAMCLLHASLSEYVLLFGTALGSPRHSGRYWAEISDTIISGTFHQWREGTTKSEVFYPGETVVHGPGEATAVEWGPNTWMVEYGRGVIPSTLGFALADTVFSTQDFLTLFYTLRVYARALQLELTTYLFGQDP

IC50 [1] | IC50 [2] | Structure (SMILES)
3.2 nM | – | CN(CCCCc1ccccc1)CCn1c(O)c2n(c1=O)Cc1ccccc1C2 [(S)-2-{2-[Methyl-(4-phenyl-butyl)-amino]-ethyl}-10,10a-dihydro-5H-imidazo[1,5-b]isoquinoline-1,3-dione]
9.9 nM | – | CN(CCCCn1c(O)c2n(c1=O)Cc1ccccc1C2)CCc1ccccc1 [(S)-2-[4-(Methyl-phenethyl-amino)-butyl]-10,10a-dihydro-5H-imidazo[1,5-b]isoquinoline-1,3-dione]
9.6 nM | – | O=c1n(CCCNCc2ccccc2)c(O)c2n1Cc1ccccc1C2 [(S)-2-(3-Benzylamino-propyl)-10,10a-dihydro-5H-imidazo[1,5-b]isoquinoline-1,3-dione]
4.2 nM | – | CN(CCCCn1c(O)c2n(c1=O)Cc1ccccc1C2)Cc1ccccc1 [(S)-2-[4-(Benzyl-methyl-amino)-butyl]-10,10a-dihydro-5H-imidazo[1,5-b]isoquinoline-1,3-dione]
32 nM | – | O=c1n(CCCN2CCN(Cc3ccccc3)CC2)c(O)c2n1Cc1ccccc1C2 [(S)-2-[3-(4-Benzyl-piperazin-1-yl)-propyl]-10,10a-dihydro-5H-imidazo[1,5-b]isoquinoline-1,3-dione]
10.5 nM | – | O=c1n(CCCNCCCCc2ccccc2)c(O)c2n1Cc1ccccc1C2 [(S)-2-[3-(4-Phenyl-butylamino)-propyl]-10,10a-dihydro-5H-imidazo[1,5-b]isoquinoline-1,3-dione]
> 100 nM | – | O=c1n(CCCN2CCN(CCO)CC2)c(O)c2n1Cc1ccccc1C2 [(S)-2-{3-[4-(2-Hydroxy-ethyl)-piperazin-1-yl]-propyl}-10,10a-dihydro-5H-imidazo[1,5-b]isoquinoline-1,3-dione]
> 100 nM | – | CN(CCCn1c(O)c2n(c1=O)Cc1ccccc1C2)c1ccccc1 [(S)-2-[3-(Methyl-phenyl-amino)-propyl]-10,10a-dihydro-5H-imidazo[1,5-b]isoquinoline-1,3-dione]
82.3 nM | – | O=c1n(CCCNC2CCN(Cc3ccccc3)CC2)c(O)c2n1Cc1ccccc1C2 [(S)-2-[3-(1-Benzyl-piperidin-4-ylamino)-propyl]-10,10a-dihydro-5H-imidazo[1,5-b]isoquinoline-1,3-dione]
> 100 nM | – | CN1CCN(CCn2c(O)c3n(c2=O)Cc2ccccc2C3)CC1 [(S)-2-[2-(4-Methyl-piperazin-1-yl)-ethyl]-10,10a-dihydro-5H-imidazo[1,5-b]isoquinoline-1,3-dione]
9.4 nM | – | CN(CCCCCCn1c(O)c2n(c1=O)Cc1ccccc1C2)Cc1ccccc1 [(S)-2-[6-(Benzyl-methyl-amino)-hexyl]-10,10a-dihydro-5H-imidazo[1,5-b]isoquinoline-1,3-dione]
11.7 nM | – | CN(CCCCCn1c(O)c2n(c1=O)Cc1ccccc1C2)CCc1ccccc1 [(S)-2-[5-(Methyl-phenethyl-amino)-pentyl]-10,10a-dihydro-5H-imidazo[1,5-b]isoquinoline-1,3-dione]
> 100 nM | – | CN1CCN(CCCn2c(O)c3n(c2=O)Cc2ccccc2C3)CC1 [(S)-2-[3-(4-Methyl-piperazin-1-yl)-propyl]-10,10a-dihydro-5H-imidazo[1,5-b]isoquinoline-1,3-dione]
– | 29.5 nM | CN(CCCCCCn1c(O)c2n(c1=O)Cc1ccccc1C2)CCc1ccccc1 [(S)-2-[6-(Methyl-phenethyl-amino)-hexyl]-10,10a-dihydro-5H-imidazo[1,5-b]isoquinoline-1,3-dione]
2.9 nM | – | CN(CCCCCc1ccccc1)CCn1c(O)c2n(c1=O)Cc1ccccc1C2 [(S)-2-{2-[Methyl-(5-phenyl-pentyl)-amino]-ethyl}-10,10a-dihydro-5H-imidazo[1,5-b]isoquinoline-1,3-dione]
> 100 nM | – | CC(C)NC(=O)CN1CCN(CCn2c(O)c3n(c2=O)Cc2ccccc2C3)CC1 [2-{4-[2-((S)-1,3-Dioxo-1,5,10,10a-tetrahydro-imidazo[1,5-b]isoquinolin-2-yl)-ethyl]-piperazin-1-yl}-N-isopropyl-acetamide]
13.6 nM | – | CN(CCCc1ccccc1)CCn1c(O)c2n(c1=O)Cc1ccccc1C2 [(S)-2-{2-[Methyl-(3-phenyl-propyl)-amino]-ethyl}-10,10a-dihydro-5H-imidazo[1,5-b]isoquinoline-1,3-dione]
5 nM | – | CN(CCCCCn1c(O)c2n(c1=O)Cc1ccccc1C2)Cc1ccccc1 [(S)-2-[5-(Benzyl-methyl-amino)-pentyl]-10,10a-dihydro-5H-imidazo[1,5-b]isoquinoline-1,3-dione]
> 1000 nM | – | CN(C)CCCN1CCN(CCn2c(O)c3n(c2=O)Cc2ccccc2C3)CC1 [(S)-2-{2-[4-(3-Dimethylamino-propyl)-piperazin-1-yl]-ethyl}-10,10a-dihydro-5H-imidazo[1,5-b]isoquinoline-1,3-dione]
> 100 nM | – | O=c1n(CCN2CCN(CCO)CC2)c(O)c2n1Cc1ccccc1C2 [(S)-2-{2-[4-(2-Hydroxy-ethyl)-piperazin-1-yl]-ethyl}-10,10a-dihydro-5H-imidazo[1,5-b]isoquinoline-1,3-dione]
23.8 nM | – | O=c1n(CCCN2CCN(Cc3ccc4c(c3)OCO4)CC2)c(O)c2n1Cc1ccccc1C2 [(S)-2-[3-(4-Benzo[1,3]dioxol-5-ylmethyl-piperazin-1-yl)-propyl]-10,10a-dihydro-5H-imidazo[1,5-b]isoquinoline-1,3-dione]
12.6 nM | – | CN(CCc1ccccc1)CCn1c(O)c2n(c1=O)Cc1ccccc1C2 [(S)-2-[2-(Methyl-phenethyl-amino)-ethyl]-10,10a-dihydro-5H-imidazo[1,5-b]isoquinoline-1,3-dione]
4.5 nM | – | CN(CCn1c(O)c2n(c1=O)Cc1ccccc1C2)Cc1ccccc1 [(S)-2-[2-(Benzyl-methyl-amino)-ethyl]-10,10a-dihydro-5H-imidazo[1,5-b]isoquinoline-1,3-dione]
> 100 nM | – | CN(C)CCCN1CCN(CCCn2c(O)c3n(c2=O)Cc2ccccc2C3)CC1 [(S)-2-{3-[4-(3-Dimethylamino-propyl)-piperazin-1-yl]-propyl}-10,10a-dihydro-5H-imidazo[1,5-b]isoquinoline-1,3-dione]
2.1 nM | – | CN(CCCn1c(O)c2n(c1=O)Cc1ccccc1C2)CCc1ccccc1 [(S)-2-[3-(Methyl-phenethyl-amino)-propyl]-10,10a-dihydro-5H-imidazo[1,5-b]isoquinoline-1,3-dione]
